The test system of one experiment is HL-60. Briefly: Compound was tested for its cytotoxic activity against human HL-60 promyelocytic leukemia cell line. Type of experiment: functional. Particulars: read-out: ID50 (the source's name).
The subject of another experiment is Bel-7402. Briefly: Compound was tested for its cytotoxic activity against human Bel-7402 Hepatocellular carcinoma cell line. It is filed as functional. Particulars: read-out: ID50 (the source's name).

Drawing on ChEMBL document CHEMBL1137950, “Studies on 1-O-acetylbritannilactone and its derivative, (2-O-butyloxime-3-phenyl)-propionyl-1-O-acetylbritannilactone ester” (2004), this text covers IC50 for two compounds.

Values after ≈ are worked out from the molar mass of the structure shown.

Turning to `C=C1C(=O)O[C@@H]2CC(C)=C([C@@H](C)CCCOC(C)=O)[C@H](O)[C@H]12`, the IC50 with HL-60 amounted to 18.4 µg/mL (≈ 59.7 µM); in the experiment with Bel-7402 it was 15.6 µg/mL (≈ 50.6 µM).

As to `C=C1C(=O)O[C@@H]2CC(C)=C([C@@H](C)CCCOC(C)=O)[C@H](OC(=O)/C(Cc3ccccc3)=N/OCCCC)[C@H]12`, the IC50 came out at 4.3 µg/mL (≈ 8.18 µM) in the experiment on HL-60 and 7.2 µg/mL (≈ 13.7 µM) in the experiment on Bel-7402.
